We go through 15 compounds from ChEMBL document CHEMBL1201862, “PubChem BioAssay data set” (2004).

The structures appear in SMILES notation.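 Assay format: 96-well plates, 48-hour exposure. GI50 marks 50% less growth.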 Calls of active or inactive are those of the source. No stated cut-off is given here; in the data, active = GI50 up to about 1.1 µM and inactive = higher. A value given as a limit tells only on which side of the number the result lay.

Among the test systems are DU-145; HCT-15; HOP-62; HT-29; MDA-N; NCI-H23; OVCAR-5; OVCAR-8; PC-3; RXF 393; SK-MEL-5; T47D; TK-10; BT-549; OVCAR-3; SN12C.
Holding throughout (assay): growth of human tumour cells (NCI), 48 h

With `COC(=O)N[C@H](C(=O)NC(OCc1ccccc1)C1COC(C)(C)O1)C(C)O[Si](C)(C)C(C)(C)C` (stereo partly drawn), the GI50 in the assay on DU-145 is > 100 µM (inactive); with HCT-15 it was 58.3 µM; in the assay on HOP-62, 92.5 µM (inactive); in the assay with HT-29, 24.3 µM (inactive); in the assay with MDA-N it was > 100 µM (inactive); in the assay with NCI-H23, > 100 µM (inactive). In addition, the GI50 is > 100 µM (inactive) in the assay on OVCAR-5; > 100 µM (inactive) with OVCAR-8; 32.4 µM (inactive) with PC-3; > 100 µM (inactive) in the assay on RXF 393; 26.7 µM (inactive) in the assay with SK-MEL-5; > 100 µM (inactive) with T47D. In the assay with TK-10, the GI50 is > 100 µM (inactive).

For `C=CCCON(C(=O)OC(C)(C)C)c1ccccc1`, the GI50 with BT-549 is > 100 µM (inactive); with DU-145, > 100 µM (inactive); in the assay on HCT-15 it was above 100 µM; in the assay with HOP-62, > 100 µM (inactive); in the assay with HT-29 it was 47.9 µM (inactive); in the assay on MDA-N it was > 100 µM (inactive). Further, the GI50 in the assay with NCI-H23 is > 100 µM (inactive); in the assay on OVCAR-3, > 100 µM (inactive); with OVCAR-5, > 100 µM (inactive); with OVCAR-8, > 100 µM (inactive); in the assay with PC-3 it was 4.12 µM (inactive); in the assay on RXF 393, > 100 µM (inactive). Besides, the GI50 is > 100 µM (inactive) with SK-MEL-5, > 100 µM (inactive) in the assay with SN12C, 95.1 µM (inactive) with T47D and > 100 µM (inactive) in the assay on TK-10.

`CN(C)CCCNC(=S)S`: the GI50 was > 100 µM (inactive) in the assay with BT-549; > 100 µM (inactive) with DU-145; above 100 µM with HCT-15; > 100 µM (inactive) in the assay with HOP-62; > 100 µM (inactive) in the assay on HT-29; > 100 µM (inactive) with MDA-N. The GI50 with NCI-H23, with OVCAR-3, in the assay on OVCAR-5, in the assay with OVCAR-8, in the assay on PC-3 and in the assay on RXF 393 was > 100 µM (inactive) throughout. The GI50 in the assay on SK-MEL-5, with SN12C and with TK-10 was > 100 µM (inactive) throughout.

As for `OC1(c2ccc(Cl)cc2)c2ccc3ccccc3c2C2=N[C@H]3CCCC[C@@H]3N21` (stereo partly drawn), the GI50 was 3.39 µM (inactive) in the assay with DU-145; 4.75 µM in the assay with HCT-15; 2.54 µM (inactive) with HOP-62; 10.6 µM (inactive) in the assay on MDA-N; 37 µM (inactive) in the assay on NCI-H23; 1.63 µM (inactive) in the assay on OVCAR-3. Moreover, the GI50 was 3.76 µM (inactive) in the assay with OVCAR-5; 1.55 µM (inactive) in the assay with OVCAR-8; 6.32 µM (inactive) in the assay with PC-3; 3.5 µM (inactive) in the assay with RXF 393; 37 µM (inactive) in the assay with SK-MEL-5; 38.5 µM (inactive) in the assay with SN12C. For the same compound, the GI50 in the assay with T47D was 3.13 µM (inactive); in the assay with TK-10, 1.52 µM (inactive).

With `CCCCCCCc1cscc1-c1cscc1Br`, the GI50 with BT-549 was > 100 µM (inactive); in the assay with DU-145, 48.4 µM (inactive); with HCT-15, 36.1 µM; in the assay with HOP-62, 57.4 µM (inactive); with MDA-N, 35.8 µM (inactive); in the assay on NCI-H23, 40.8 µM (inactive). For the same compound, the GI50 in the assay on OVCAR-5 is 39.3 µM (inactive); with OVCAR-8, 52 µM (inactive); with PC-3, 33 µM (inactive); with RXF 393 it was 27 µM (inactive); with SK-MEL-5 it was 28.4 µM (inactive); in the assay on SN12C, 69.5 µM (inactive). For the same compound, the values for the GI50 in the assay with T47D and with TK-10 were 24.2 µM (inactive) and > 100 µM (inactive), respectively.

As for `O=c1cc(O)c1=O`, the GI50 with BT-549 was > 100 µM (inactive); with DU-145, > 100 µM (inactive); in the assay with HCT-15, above 100 µM; with HOP-62, > 100 µM (inactive); with HT-29 it was > 100 µM (inactive); in the assay with MDA-N, > 100 µM (inactive). Also, the GI50 in the assay on NCI-H23, in the assay on OVCAR-3, in the assay with OVCAR-5, in the assay on OVCAR-8, in the assay on PC-3 and with SK-MEL-5 was > 100 µM (inactive) in each case. Further, the GI50 with SN12C, with T47D and with TK-10 was > 100 µM (inactive) in each case.

On to `Cn1c(=O)c(Cl)c(N=[N+]=[N-])c2ccccc21`, for which the GI50 in the assay on DU-145 is > 100 µM (inactive); in the assay on HCT-15, above 100 µM; in the assay with HOP-62 it was > 100 µM (inactive); in the assay on HT-29 it was > 100 µM (inactive); in the assay with MDA-N it was 84.1 µM (inactive); in the assay on NCI-H23, > 100 µM (inactive). Further, the GI50 is 33.3 µM (inactive) with OVCAR-3; > 100 µM (inactive) in the assay with OVCAR-5; > 100 µM (inactive) with OVCAR-8; 78.7 µM (inactive) in the assay on PC-3; 69.2 µM (inactive) in the assay with RXF 393; 65.5 µM (inactive) with SK-MEL-5. For the same compound, the results for the GI50 with SN12C, in the assay with T47D and in the assay with TK-10 were 56.5 µM (inactive), 64 µM (inactive) and > 100 µM (inactive), respectively.

Consider `CSc1sc(C)cc1-c1nsc(=O)o1`, for which the GI50 in the assay on DU-145 was > 100 µM (inactive); with HCT-15 it was above 100 µM; with HT-29 it was > 100 µM (inactive); in the assay on MDA-N it was > 100 µM (inactive); with NCI-H23 it was > 100 µM (inactive); with OVCAR-5, > 100 µM (inactive). Also, the GI50 with PC-3, in the assay with RXF 393, in the assay on SK-MEL-5 and with SN12C was > 100 µM (inactive) throughout.

Consider `N=c1n(C(=O)N2CCCC2)c2cc(Cl)ccc2n1C1=NCCN1`, for which the GI50 in the assay with BT-549 is 60.1 µM (inactive); in the assay with DU-145, 50 µM (inactive); in the assay with HCT-15, 40.6 µM; in the assay with HOP-62, > 100 µM (inactive); in the assay on HT-29, 75.7 µM (inactive); in the assay on MDA-N, 61.8 µM (inactive). The GI50 in the assay on OVCAR-3 was 80.5 µM (inactive); with OVCAR-5 it was > 100 µM (inactive); with OVCAR-8, 88.3 µM (inactive); in the assay on PC-3, 86.9 µM (inactive); in the assay on RXF 393 it was 82.4 µM (inactive); in the assay with SK-MEL-5 it was 83 µM (inactive). The GI50 in the assay on SN12C was 70.5 µM (inactive); with T47D, 24.2 µM (inactive); in the assay on TK-10 it was 86.5 µM (inactive).

With `CC(O)(P(=O)(O)O)P(=O)(O)OCC(O)CN1CCOCC1` (stereo not drawn), the GI50 in the assay with BT-549 is > 100 µM (inactive); in the assay with DU-145 it was > 100 µM (inactive); in the assay on HCT-15 it was above 100 µM; in the assay on HOP-62 it was > 100 µM (inactive); in the assay with HT-29, > 100 µM (inactive); with MDA-N, > 100 µM (inactive). Besides, the GI50 in the assay on NCI-H23, in the assay with OVCAR-5, with OVCAR-8, in the assay with PC-3, with RXF 393 and in the assay with TK-10 was > 100 µM (inactive) each time.

Take `O=c1oc2ccc(-n3c(=O)c4ccccc4c4ccccc4c3=O)cc2c2ccccc12`: the GI50 with BT-549 was 57.1 µM (inactive); in the assay with HCT-15 it was above 100 µM; in the assay with HOP-62, > 100 µM (inactive); in the assay with HT-29, > 100 µM (inactive); in the assay with MDA-N, > 100 µM (inactive); in the assay on NCI-H23, > 100 µM (inactive). Also, the GI50 is > 100 µM (inactive) in the assay on OVCAR-3; > 100 µM (inactive) in the assay with OVCAR-5; > 100 µM (inactive) with OVCAR-8; > 100 µM (inactive) in the assay on PC-3; 85.1 µM (inactive) with RXF 393; > 100 µM (inactive) in the assay on SK-MEL-5. Moreover, the GI50 with SN12C, with T47D and with TK-10 was > 100 µM (inactive) each time.

As for `Sc1ncc(-c2cncc(-c3cnc(S)nc3)n2)cn1`, the GI50 in the assay on BT-549 was > 100 µM (inactive); in the assay with DU-145 it was > 100 µM (inactive); in the assay with HCT-15, above 100 µM; with HT-29 it was > 100 µM (inactive); with MDA-N, > 100 µM (inactive); in the assay with NCI-H23 it was > 100 µM (inactive). The GI50 in the assay with OVCAR-3, in the assay on OVCAR-5, in the assay on OVCAR-8, with PC-3, in the assay with RXF 393 and with SK-MEL-5 was > 100 µM (inactive) each time. Also, the GI50 with SN12C, in the assay with T47D and in the assay with TK-10 was > 100 µM (inactive) each time.

Take `COc1cccc(C2c3cc4c(cc3OC(N3CCOCC3)C2C)OCO4)c1` (stereo not drawn): the GI50 in the assay on BT-549 is 3.39 µM (inactive); with DU-145, 31.8 µM (inactive); in the assay on HCT-15, 6.31 µM; with HOP-62, 16.2 µM (inactive); in the assay on HT-29, 4.68 µM (inactive); in the assay with MDA-N, 3.07 µM (inactive). For the same compound, the GI50 with OVCAR-3 is 7.74 µM (inactive); in the assay with OVCAR-5, 27 µM (inactive); with OVCAR-8, 23.4 µM (inactive); in the assay on PC-3, 5.53 µM (inactive); in the assay with SK-MEL-5 it was 4.37 µM (inactive); in the assay on SN12C, 24.3 µM (inactive). Besides, in the assay on T47D, the GI50 is 27.5 µM (inactive).

Consider `CC1=CC(=O)CC2(C)CCC(C(C)CC(=O)CC(C)C)CC12` (stereo not drawn), for which the GI50 was 62.4 µM (inactive) in the assay on DU-145; 38.6 µM in the assay with HCT-15; 25.8 µM (inactive) in the assay on HT-29; 35.4 µM (inactive) in the assay with NCI-H23; > 100 µM (inactive) with OVCAR-5; 24.5 µM (inactive) with OVCAR-8. In addition, the GI50 was 19.5 µM (inactive) in the assay on PC-3; 23.6 µM (inactive) with RXF 393; 20.4 µM (inactive) in the assay on SK-MEL-5; 17.7 µM (inactive) with SN12C; > 100 µM (inactive) with TK-10.

For `COc1cc2c(cc1OC)C1(COc3cc(O)c(O)c(O)c3C1=O)C2` (stereo not drawn), the GI50 in the assay on DU-145 is > 50 µM (inactive); with HCT-15, above 50 µM; in the assay on HOP-62 it was > 50 µM (inactive); in the assay with HT-29, > 50 µM (inactive); in the assay on MDA-N, > 50 µM (inactive); in the assay on NCI-H23, 45.4 µM (inactive). In addition, the GI50 in the assay on OVCAR-3, in the assay with OVCAR-5, in the assay with OVCAR-8, in the assay with PC-3, with RXF 393 and with SK-MEL-5 was > 50 µM (inactive) each time. Moreover, the GI50 in the assay on SN12C was > 50 µM (inactive); with T47D it was 5.11 µM (inactive); in the assay on TK-10, > 50 µM (inactive).
